The values below come from article PMC4700930 (Nature, 2015).

Where two headings read alike, the source gives them in different places. Numbered stars: 1 amine (or outer) side, 2 acyl side, 3 side chain; on linkers, the order of the positions; unused ones are H or OH. Bridge positions count the residues as written; N and C are the ends. Square brackets hold non-standard residues; d marks the D form. Peptide text beside a SMILES is read from it. I, II: the chains in the order shown. Actinocin(9to1) = Cc1c2oc3c(C)ccc(C(=O)[*:1])c3nc-2c(C(=O)[*:2])c(N)c1=O; NMeV = CN[C@H](C(=O)O)C(C)C; Sar = CNCC(=O)O

By EC50 is commonly meant the concentration needed to bring the measured effect to its halfway point. Broadly, the EC90 is the concentration at which the effect reaches the 90% level. One may read the bioavailability as the share of a dose that reaches the circulation, judged against a reference dose that is usually intravenous. A low value points to poor availability. As a reminder, the half-life is the time in which the quantity being followed falls by half. The term IC50 denotes the point on the concentration scale where inhibition reaches its midpoint.

Data set [1] relates to GFP-transfected P. berghei ANKA strain. As to conditions: for Activity % / Survival days: oral single dose.
A further data set relates to P. berghei liver stages. As to the kind of experiment: Plasmodium berghei luciferase liver stage assay.
Data set [2] deals with Plasmodium falciparum strain 3D7. Kind of data set: P. falciparum. In kind it is cell-based.
Data set [3] relates to P. falciparum strains K1, W2, 7G8, TM90C2A, D6, V1/S, NF54. Kind of data set: P. falciparum. The following applies: compared with 3D7. In kind it is cell-based, Plasmodium falciparum.
The test system of data set [4] is P. falciparum clinical isolates. Kind of data set: Ex vivo P. falciparum field isolates assay. The format is cell-based. As to conditions: Plasmodium falciparum.
Data set [5] concerns P. vivax clinical isolates. Kind of data set: Ex vivo P. vivax field isolates assay. The format is cell-based, Plasmodium vivax. The following applies: read-out: median EC50, P. vivax clinical isolates, isolates from Papua (Indonesia).
Data set [6] has as its system MRC5 (human foetal lung fibroblasts). Kind of data set: Cytotoxicity against mammalian cells, resazurin assay, MRC5. In kind it is cell-based. Background: Alamar Blue is a resazurin reagent that responds to reducing activity.
The test system of the next data set is P. falciparum NF54. Kind of data set: Stage specificity studies in P. falciparum, synchronised cultures. The following applies: 4nM for 24 h. The format is cell-based, Plasmodium falciparum.
The test system of data set [7] is P. falciparum Pf3D7^0087/N9. The format is in vivo, Plasmodium falciparum.
For data set [8], the system named is liver schizont forms of P. yoelii. Kind of data set: P. yoelii liver stage assay. In kind it is cell-based. The following applies: Plasmodium yoelii, read-out: EC50, P. yoelii liver stage, liver schizont forms.
The test system of a further data set is P. berghei (PbGFPCON507). The format is in vivo, Plasmodium berghei.
A short description of data set [9]: Plasma protein binding, equilibrium dialysis. In kind it is in vitro ADME, mouse, rat, human.
The next data set is described as follows: Mouse pharmacokinetics. In kind it is in vivo. The following applies: Intravenous 1 mg/kg.
A short description of another data set: Rat pharmacokinetics. In kind it is in vivo.
The nature of the next data set: Dog pharmacokinetics. The format is in vivo. The following applies: Intravenous 1 mg/kg.
The test system of data set [10] is DDD107498-resistant P. falciparum lines. Kind of data set: SYBR Green growth assay on DDD107498-selected resistant lines. In kind it is cell-based. The following applies: Plasmodium falciparum.
Data set [11] relates to DNA/RNA synthesis in P. falciparum 3D7. Kind of data set: Metabolic labelling with [3H]-hypoxanthine. In kind it is cell-based, Plasmodium falciparum. As to conditions: sensitive and drug-resistant parasites.
The next data set concerns P. falciparum. As to the kind of experiment: Parasite Reduction Ratio.
For another data set, the system named is P. berghei ookinetes. Kind of data set: P. berghei ookinete development assay. The following applies: Plasmodium berghei, read-out: EC50, P. berghei ookinete.
The subject of data set [12] is luciferase-expressing P. berghei sporozoites. As to conditions: blood sampling from the mice.
Where [13] appears, read: 30 mg/kg, murine P. berghei model.
Setting [14] is: male, Sprague Dawley, rat, blood, po, 5 mg/kg.

For the molecule `CO[C@H]1O[C@@H]2O[C@@]3(C)CC[C@H]4[C@H](C)CC[C@@H]([C@H]1C)[C@@]24OO3` [Artemether], the Activity % in data set [1] (3 mg/kg) is 59%; in data set [1] (10 mg/kg) it was 89%; in data set [1] (setting [13]), 98%. Further, the Survival days is on record as 6 days in data set [1] (3 mg/kg), 6 days in data set [1] (10 mg/kg) and 7 days in data set [1] (30 mg/kg).
In the case of `C[C@H]1[C@H](OC(=O)CCC(=O)O)O[C@@H]2O[C@@]3(C)CC[C@H]4[C@H](C)CC[C@@H]1[C@@]24OO3` [Artesunate], the Activity % in [1] (3 mg/kg) is reported as under 40%; in [1] (10 mg/kg), 75%. In addition, the Survival days in [1] (3 mg/kg) is reported as 6 days; in [1] (10 mg/kg) it was 6 days; in data set [1] (30 mg/kg) it was 9 days.
With `O=C1C(O)=C([C@H]2CC[C@H](c3ccc(Cl)cc3)CC2)C(=O)c2ccccc21` [Atovaquone, reference compound], the EC50 in the data set on P. berghei liver stages (read-out: EC50, P. berghei liver stage, continuous treatment) was determined as 0.3 nM.
`CCN(CC)CCCC(C)Nc1ccnc2cc(Cl)ccc12` (stereo not drawn) [Chloroquine]: the Survival days is 7 days in data set [1] (3 mg/kg), 7 days in data set [1] (10 mg/kg) and 10 days in [1] (30 mg/kg).
For `O=C(NCCN1CCCC1)c1cc(-c2ccc(CN3CCOCC3)cc2)nc2ccc(F)cc12` [DDD107498], the “EC99 against 3D7 parasites” value in [2] (P. falciparum 3D7, n=39) is 5.9 nM. Further, the concentration giving a half-maximal response (EC50) in data set [2] (Plasmodium falciparum, 3D7, read-out: EC50 against 3D7 parasites) was 1 nM; in data set [4] (read-out: Range of EC50, P. falciparum clinical isolates) it was 0.29 to 3.29 nM; in [4] (read-out: median EC50, P. falciparum clinical isolates) it was 0.81 nM; in [5], 0.51 nM; in [8] it was about 1 nM; in the data set with P. berghei ookinetes, 5 nM. Besides, the EC50 in the data set with P. berghei liver stages (read-out: EC50, P. berghei liver stage, liver schizont forms) was about 1 nM. Also, the EC90 in [2] (Plasmodium falciparum, 3D7, read-out: EC90 against 3D7 parasites) was 2.4 nM. In data set [3], the “activity against drug-resistant strains” value was “almost equally active”. In addition, the “selectivity, human cells (MRC5 and Hep-G2) over parasite” value in data set [6] is reported as > 20,000 fold. Moreover, the “effect from the ring stage” value with P. falciparum NF54 is listed as “formation of abnormal trophozoites”. Besides, the “reduction in parasites, from the schizont stage” value in the data set with P. falciparum NF54 is listed as 98%. For the same molecule, the “reduction in parasites, from the trophozoite stage” value in the data set on P. falciparum NF54 was determined as 50%. Moreover, in data set [7] (asexual blood stage infections, blood of infected SCID mice), the “minimum parasiticidal concentration (MPC)” value lay in the range of 10 to 13 ng/mL. Further, the “ED90 on day 7 after infection” value in [7] (dosed orally daily for 4 days, SCID mice, P. falciparum) is reported as 0.95 mg/kg per day. In addition, the “TB effect- sporozoite intensity” value in the data set with P. berghei (PbGFPCON507) (3 mg/kg oral) was determined as 93.8%. Further, the “TB effect- sporozoite prevalence” value in the data set with P. berghei (PbGFPCON507) (3 mg/kg oral) worked out at 88.6%. The “reduction in infected mosquitoes (TB effect- oocyst prevalence)” value in the data set with P. berghei (PbGFPCON507) (3 mg/kg oral, day 10) is on record as 90.7%. Besides, the “reduction in oocysts per midgut (TB effect- oocyst intensity)” value in the data set with P. berghei (PbGFPCON507) (3 mg/kg oral, day 10) worked out at 98.8%. In addition, the “Inhibition in infection of naïve mice” value in the data set with P. berghei (PbGFPCON507) (3 mg/kg oral, multiple mosquito biting rates) turned out to be 89.5%. This molecule gave an Effect size in the data set with P. berghei (PbGFPCON507) (chain binomial model, reduction of R0, 100% coverage) of 90.5%. Further, the protein binding entry in [9] is on record as “low protein binding”. The CI was 12 mL/min/g in the data set “Mouse pharmacokinetics”; 18 mL/min/g in the data set “Rat pharmacokinetics” (Rat, Intravenous 1 mg/kg); 30 mL/min/g in the data set “Dog pharmacokinetics”. For the same molecule, the bioavailability in the data set “Rat pharmacokinetics” (setting [14]) was 84%. In “Rat pharmacokinetics” (setting [14]), this molecule showed a half-life of 18 h. For the same molecule, the mutagenicity entry in “Mutagenicity” is on record as “non-mutagenic”. Moreover, the IC50 in [10] (DD2, read-out: DDD107498 IC50, WT Dd2) turned out to be 0.14 nM; in data set [10] (read-out: DDD107498 IC50, high-level resistant line EF2-L775F), 660 nM; in data set [10] (read-out: DDD107498 IC50, high-level resistant line EF2-Y186N) it was 3100 nM; in data set [10] (read-out: DDD107498 IC50, low-level resistant line EF2-E134D), 5.8 nM. The “effect on DNA/RNA biosynthesis ([3H]-hypoxanthine incorporation)” value (from here on “effect on DNA/RNA biosynthesis”) in [11] is reported as “minimal effects”. Besides, the “lag before killing (effects reversible following wash-out)” value in the data set with P. falciparum (10 × EC50) is 24 to 48 h. Moreover, the “concentration sufficient to produce maximal killing effects” value in the data set on P. falciparum (tested at 0.1, 0.3, 1, 3 and 10 × EC50) is at least 1 × EC50. The Activity % in data set [1] (3 mg/kg) was determined as 99%; in data set [1] (10 mg/kg) it was 99.0%; in data set [1] (setting [13]) it was 99.1%. The Survival days was 9 days in [1] (3 mg/kg), 14 days in data set [1] (10 mg/kg) and 23 days in data set [1] (30 mg/kg). Besides, in data set [1] (single oral dose, mice infected with P. berghei), the “ED90 (90% reduction in parasitaemia)” value is 0.57 mg/kg. In addition, the “MPC, chemoprotection” value in [12] was 15 to 20 ng/mL.
`C[C@H]1[C@@H](O)O[C@@H]2O[C@@]3(C)CC[C@H]4[C@H](C)CC[C@@H]1[C@@]24OO3` [Dihydroartemsinin]: the Activity % is given as 61% in data set [1] (3 mg/kg), 97% in data set [1] (10 mg/kg) and 99% in [1] (setting [13]). Moreover, the Survival days in data set [1] (3 mg/kg) stood at 7 days; in data set [1] (10 mg/kg), 6 days; in data set [1] (30 mg/kg), 7 days.
With `OC(c1cc(C(F)(F)F)nc2c(C(F)(F)F)cccc12)C1CCCCN1` (stereo not drawn) [Mefloquine], the Activity % is under 40% in [1] (3 mg/kg) and 95% in data set [1] (10 mg/kg). In addition, the Survival days in data set [1] (3 mg/kg) is 7 days; in data set [1] (10 mg/kg), 16 days; in data set [1] (30 mg/kg), 22 days.
As to `Cc1c2oc3c(C)ccc(C(=O)N[C@@H]4C(=O)N[C@H](C(C)C)C(=O)N5CCC[C@H]5C(=O)N(C)CC(=O)N(C)[C@@H](C(C)C)C(=O)O[C@@H]4C)c3nc-2c(C(=O)N[C@@H]2C(=O)N[C@H](C(C)C)C(=O)N3CCC[C@H]3C(=O)N(C)CC(=O)N(C)[C@@H](C(C)C)C(=O)O[C@@H]2C)c(N)c1=O` [actinomycin D] (I: T[dV]P[Sar][NMeV] / II: T[dV]P[Sar][NMeV]; ester I:1-I:C, II:1-II:C; linker I:N-II:N via Actinocin(9to1)), the “effect on DNA/RNA biosynthesis” value in data set [11] is on record as “significant dose-dependent reduction”.
`C[C@@H]1C[C@@H]([C@H](O)CC2CC(=O)NC(=O)C2)C(=O)[C@@H](C)C1` [cycloheximide]: the “effect on DNA/RNA biosynthesis” value in [11] is given as “minimal effects”.
